For one data set, the target named is T1, p38 MAP kinase (Homo sapiens, UniProt Q16539).
T1 construct: made in house; host or cells: E. coli (co-expressed with SEK-1 and MEKK)
As to the kind of experiment: p38 (MAP) kinase in vitro assay. To be noted: transfer of γ-phosphate from γ-33P-ATP to Myelin Basic Protein; phosphorylated recombinant p38 MAP kinase. In kind it is biochemical. As for the experimental part:
This example illustrates a p38 (MAP) kinase in vitro assay useful for evaluating the compounds of the invention.
The p38 MAP kinase inhibitory activity of compounds of this invention in vitro was determined by measuring the transfer of the γ-phosphate from γ-^33P-ATP by p-38 kinase to Myelin Basic Protein (MBP), using a minor modification of the method described in Ahn, et al., J. Biol. Chem. 266:4220-4227 (1991).
The phosphorylated form of the recombinant p38 MAP kinase was co-expressed with SEK-1 and MEKK in E. Coli (see, Khokhlatchev, et al., J. Biol. Chem. 272:11057-11062 (1997)) and then purified by affinity chromatography using a Nickel column.
The phosphorylated p38 MAP kinase was diluted in kinase buffer (20 mM 3-(N-morpholino)propanesulfonic acid, pH 7.2, 25 mM β-glycerol phosphate, 5 mM ethylene glycol-bis(beta-aminoethyl ether)-N,N,N′,N′-tetraacetic acid, 1 mM sodium ortho-vanadate, 1 mM dithiothreitol, 40 mM magnesium chloride). Test compound dissolved in DMSO or only DMSO (control) was added and the samples were incubated for 10 min at 30° C. The kinase reaction was initiated by the addition of a substrate cocktail containing MBP and γ-^33P-ATP. […] The phosphorylated MBP was then separated from the residual γ-^33P-ATP using a phosphocellulose membrane (Millipore, Bedfrod, Mass.) and quantitated using a scintillation counter (Packard, Meriden, Conn.).

T1 sequence (Q16539 whole entry): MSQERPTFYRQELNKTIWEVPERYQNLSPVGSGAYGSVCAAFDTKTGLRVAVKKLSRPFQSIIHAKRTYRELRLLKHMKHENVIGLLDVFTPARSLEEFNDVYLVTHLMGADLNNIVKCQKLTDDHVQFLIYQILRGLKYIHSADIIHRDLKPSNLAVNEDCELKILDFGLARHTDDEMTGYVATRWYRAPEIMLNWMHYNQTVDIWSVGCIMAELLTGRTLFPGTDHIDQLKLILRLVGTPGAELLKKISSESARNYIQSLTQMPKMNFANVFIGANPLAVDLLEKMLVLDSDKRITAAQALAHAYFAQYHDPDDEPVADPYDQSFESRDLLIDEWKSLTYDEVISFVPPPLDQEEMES

`CC(C)Oc1n[nH]c2nc(Oc3ccc(F)cc3F)ncc12` [Compound 1, 6-(2,4-Difluoro-phenoxy)-3-isopropoxy-1H-pyrazolo[3,4-d]pyrimidine] showed a melting point of 143.7 to 145 °C. For the same compound, on p38 MAP kinase, the IC50 was roughly 165 nM.

(Values after US7563800B2, “Substituted pyrazolo[3,4-D]pyrimidines as p38 map kinase inhibitors” (Roche Palo Alto LLC, priority 2006, dated 2009).)
